In ChEMBL document CHEMBL3867430, “Novel 3,4-seco bile acid diamides as selective anticancer proliferation and migration agents” (Eur J Med Chem, 2016):
The source made the active and inactive calls. The calls are words filed in the database; no cut-off is given here.

Legend:
[1] = Antiproliferative activity against human PC3M cells after 48 hrs by SRB assay; assay type: functional, cell-based; details: PC-3M
[2] = Antiproliferative activity against human HT-29 cells after 48 hrs by SRB assay; assay type: functional, cell-based; details: HT-29, 48 h
[3] = Antiproliferative activity against human ES2 cells after 48 hrs by SRB assay; assay type: functional, cell-based; details: ES-2, 48 h
[4] = Antiproliferative activity against HAF cells after 48 hrs by SRB assay; assay type: cell-based; details: Homo sapiens
[5] = Selectivity index, ratio of IC50 for HAF cells to IC50 for human PC3M cells; assay type: functional
[6] = Selectivity index, ratio of IC50 for HAF cells to IC50 for human HT-29 cells; assay type: functional
[7] = Selectivity index, ratio of IC50 for HAF cells to IC50 for human ES2 cells; assay type: functional
[8] = Inhibition of colony formation in human PC3M cells at 5 uM after 7 days by crystal violet staining based assay; assay type: functional; details: PC-3M, 168 h
[9] = test system: PC-3M; experiment: Inhibition of colony formation in human PC3M cells at 10 uM after 7 days by crystal violet staining based assay; assay type: functional, cell-based
[10] = test system: PC-3M; experiment: Inhibition of colony formation in human PC3M cells after 7 days by crystal violet staining based assay; assay type: functional, cell-based
[11] = test system: PC-3M; experiment: Induction of apoptosis in human PC3M cells assessed as early apoptotic cells at 2.5 uM after 24 hrs by annexin V-FITC/propidium iodide staining based flow cytometry (reference value: 15.20%); assay type: functional
[12] = test system: PC-3M; experiment: Induction of apoptosis in human PC3M cells assessed as late apoptotic cells at 2.5 uM after 24 hrs by annexin V-FITC/propidium iodide staining based flow cytometry (reference value: 0.97%); assay type: functional
[13] = test system: PC-3M; experiment: Induction of apoptosis in human PC3M cells assessed as early apoptotic cells at 5 uM after 24 hrs by annexin V-FITC/propidium iodide staining based flow cytometry (reference value: 15.20%); assay type: functional
[14] = test system: PC-3M; experiment: Induction of apoptosis in human PC3M cells assessed as late apoptotic cells at 5 uM after 24 hrs by annexin V-FITC/propidium iodide staining based flow cytometry (reference value: 0.97%); assay type: functional
[15] = test system: PC-3M; experiment: Induction of apoptosis in human PC3M cells assessed as early apoptotic cells at 10 uM after 24 hrs by annexin V-FITC/propidium iodide staining based flow cytometry (reference value: 15.20%); assay type: functional
[16] = test system: PC-3M; experiment: Induction of apoptosis in human PC3M cells assessed as late apoptotic cells at 10 uM after 24 hrs by annexin V-FITC/propidium iodide staining based flow cytometry (reference value: 0.97%); assay type: functional
[17] = test system: PC-3M; experiment: Induction of apoptosis in human PC3M cells assessed as early apoptotic cells at 20 uM after 24 hrs by annexin V-FITC/propidium iodide staining based flow cytometry (reference value: 15.20%); assay type: functional
[18] = test system: PC-3M; experiment: Induction of apoptosis in human PC3M cells assessed as late apoptotic cells at 20 uM after 24 hrs by annexin V-FITC/propidium iodide staining based flow cytometry (reference value: 0.97%); assay type: functional
[19] = test system: PC-3M; experiment: Induction of apoptosis in human PC3M cells assessed as early apoptotic cells at 2.5 uM after 48 hrs by annexin V-FITC/propidium iodide staining based flow cytometry (reference value: 31.94%); assay type: functional
[20] = test system: PC-3M; experiment: Induction of apoptosis in human PC3M cells assessed as late apoptotic cells at 2.5 uM after 48 hrs by annexin V-FITC/propidium iodide staining based flow cytometry (reference value: 0.32%); assay type: functional
[21] = test system: PC-3M; experiment: Induction of apoptosis in human PC3M cells assessed as early apoptotic cells at 5 uM after 48 hrs by annexin V-FITC/propidium iodide staining based flow cytometry (reference value: 31.94%); assay type: functional
[22] = test system: PC-3M; experiment: Induction of apoptosis in human PC3M cells assessed as late apoptotic cells at 5 uM after 48 hrs by annexin V-FITC/propidium iodide staining based flow cytometry (reference value: 0.32%); assay type: functional
[23] = test system: PC-3M; experiment: Induction of apoptosis in human PC3M cells assessed as early apoptotic cells at 10 uM after 48 hrs by annexin V-FITC/propidium iodide staining based flow cytometry (reference value: 31.94%); assay type: functional
[24] = test system: PC-3M; experiment: Induction of apoptosis in human PC3M cells assessed as late apoptotic cells at 10 uM after 48 hrs by annexin V-FITC/propidium iodide staining based flow cytometry (reference value: 0.32%); assay type: functional
[25] = test system: PC-3M; experiment: Induction of apoptosis in human PC3M cells assessed as early apoptotic cells at 20 uM after 48 hrs by annexin V-FITC/propidium iodide staining based flow cytometry (reference value: 31.94%); assay type: functional
[26] = test system: PC-3M; experiment: Induction of apoptosis in human PC3M cells assessed as late apoptotic cells at 20 uM after 48 hrs by annexin V-FITC/propidium iodide staining based flow cytometry (reference value: 0.32%); assay type: functional
[27] = Cell cycle arrest in human PC3M cells assessed as accumulation at G1 phase after 24 hrs by propidium iodide staining based flow cytometry; assay type: functional; details: PC-3M
[28] = Cell cycle arrest in human PC3M cells assessed as accumulation at G1 phase at 5 uM after 24 hrs by propidium iodide staining based flow cytometry (reference value: 56.82%); assay type: functional; details: PC-3M
[29] = Cell cycle arrest in human PC3M cells assessed as accumulation at G1 phase at 10 uM after 24 hrs by propidium iodide staining based flow cytometry (reference value: 56.82%); assay type: functional; details: PC-3M
[30] = Cell cycle arrest in human PC3M cells assessed as accumulation at G1 phase at 20 uM after 24 hrs by propidium iodide staining based flow cytometry (reference value: 56.82%); assay type: functional; details: PC-3M
[31] = Cell cycle arrest in human PC3M cells assessed as reduction in S phase at 2.5 to 20 uM after 24 hrs by propidium iodide staining based flow cytometry; assay type: functional; details: PC-3M
[32] = Antimigratory activity against human PC3M cells at 2.5 uM after 12 hrs by crystal violet staining based transwell migration assay relative to control; assay type: functional, PC-3M
[33] = Antimigratory activity against human PC3M cells at 20 uM after 12 hrs by crystal violet staining based transwell migration assay; assay type: functional, PC-3M
[34] = test system: PC-3M; experiment: Antimigratory activity against human PC3M cells after 12 hrs by crystal violet staining based transwell migration assay; assay type: functional, cell-based
[35] = Cell cycle arrest in human PC3M cells assessed as accumulation at G1 phase at 2.5 uM after 24 hrs by propidium iodide staining based flow cytometry (reference value: 56.82%); assay type: functional; details: PC-3M

`C=C(C)C1CC[C@H]2[C@@H]3CC[C@H]([C@H](C)CCC(=O)N4CCNCC4)[C@@]3(C)CC[C@@H]2[C@@]1(C)CCC(=O)N1CCNCC1` (stereo not given in full) gave an IC50 [1] of 1.07 µM, an IC50 [2] of 4.58 µM and an IC50 [3] of 3.86 µM. For the same compound, the IC50 [4] was 28.1 µM, the “Ratio IC50” value [5] was 26.3 and the “Ratio IC50” value [6] was 6.1. The “Ratio IC50” value [7] was 7.3, the inhibition at 5 µM [8] was 70% and the inhibition [9] was “Active”. For the same compound, the inhibition [10] was “Dose-dependent effect”, the Activity [11] was 15.36% and the Activity [12] was 0.61%. It also gave an Activity [13] of 13.78%, an Activity [14] of 0.87% and an Activity [15] of 14.66%. It also gave an Activity [16] of 0.6%, an Activity [17] of 14.5% and an Activity [18] of 0.9%. For the same compound, the Activity [19] was 30.07%, the Activity [20] was 0.44% and the Activity [21] was 30.18%. The Activity [22] was 0.48%, the Activity [23] was 29.52% and the Activity [24] was 0.79%. For the same compound, the Activity [25] was 22.72%, the Activity [26] was 1.31% and the Activity [27] was “Dose-dependent effect”. For the same compound, the Activity [28] was 66.3%, the Activity [29] was 69% and the Activity [30] was 79%. The Activity [31] was “Active”, the Activity [32] was 50% and the Activity [33] was 100%. The Activity [34] was “Dose-dependent effect” and the Activity [35] was 58.4%.
